For series [1] the following is noted: 293.15 K; 101.33 kPa; Liquid; Vibrating tube method.
Series [2] in a line: refractive index (Na D-line) (dimensionless). The note with it: 293.15 K; 101.33 kPa; Liquid; refractometer.

Molecules are shown by their SMILES. ± gives the expanded uncertainty stated by the source.

The mass density is the mass of a sample divided by its volume. A word on the refractive index: it is a measure of how strongly the sample bends light. For the molecule `CC#N` [acetonitrile], the mass density in series [1] was determined as 782.5 ± 0.2 kg/m3. In addition, the refractive index in series [2] came out at 1.3442 ± 0.0001.

Regarding `CCCCCCO` [hexan-1-ol], the mass density in series [1] came to 818.7 ± 0.3 kg/m3. Also, in series [2], the refractive index is given as 1.418 ± 0.0002.

Turning to `CCCCCO` [pentan-1-ol], the mass density in series [1] turned out to be 815.1 ± 0.5 kg/m3. Also, the refractive index in series [2] is listed as 1.4098 ± 0.0003.

These data come from the NIST ThermoML archive (doi:10.1016/j.tca.2006.08.007).
